# ChEMBL document CHEMBL1201862, “PubChem BioAssay data set” (2004)
#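 Five concentrations, 48 hours, 96-well plates. At the GI50, growth is halved.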 Activity calls are given as the source filed them. Cut-off read from the data, not from the text of the source: active = GI50 up to about 1.1 µM and inactive = higher.
# Columns and labels:
# Experiment in all cases: NCI-60 cell line screen, 48 h
# PC-3 = test system: PC-3
# NCI-H522 = test system: NCI-H522
# RXF 393 = test system: RXF 393
# Hs-578T = test system: Hs-578T
# MDA-MB-231 = test system: MDA-MB-231
# Malme-3M = test system: Malme-3M
# ACHN = test system: ACHN
# EKVX = test system: EKVX
# LOX IMVI = test system: LOX IMVI
# A549 = test system: A549
# HOP-62 = test system: HOP-62
# U-251 = test system: U-251
# HCT-116 = test system: HCT-116
# SNB-19 = test system: SNB-19
# UACC-257 = test system: UACC-257
# SF-268 = test system: SF-268
# K562 = test system: K562
# HCC 2998 = test system: HCC 2998
# SK-MEL-28 = test system: SK-MEL-28
# DU-145 = test system: DU-145
SMILES,GI50 (PC-3),GI50 (NCI-H522),GI50 (RXF 393),GI50 (Hs-578T),GI50 (MDA-MB-231),GI50 (Malme-3M),GI50 (ACHN),GI50 (EKVX),GI50 (LOX IMVI),GI50 (A549),GI50 (HOP-62),GI50 (U-251),GI50 (HCT-116),GI50 (SNB-19),GI50 (UACC-257),GI50 (SF-268),GI50 (K562),GI50 (HCC 2998),GI50 (SK-MEL-28),GI50 (DU-145)
CC(=O)NC1C(OCc2ccccc2)OC(CO)C(O)C1OCC(=O)N[C@@H](C)C(=O)N[C@H](CCC(=O)NCCCCNc1c2ccccc2nc2cccc([N+](=O)[O-])c12)C(N)=O (stereo partly specified),1.24 µM (inactive),0.134 µM (active),1.53 µM (inactive),3.1 µM (inactive),2.5 µM (inactive),1.34 µM (inactive),1.33 µM (inactive),2.07 µM (inactive),2.39 µM (inactive),0.959 µM (active),3.69 µM (inactive),1.87 µM (inactive),0.637 µM (active),4.53 µM (inactive),2.13 µM (inactive),2.58 µM (inactive),1.13 µM (inactive),0.682 µM (active),4.5 µM (inactive),1.91 µM (inactive)
CCc1c[n+]2c(cc1C1=CN3c4ccccc4[C@]45CCN6C/C(=C/CO)[C@H](C[C@H]64)[C@@H]([C@@H]1O)[C@H]35)-c1[nH]c3ccccc3c1CC2,> 50 µM (inactive),> 50 µM (inactive),> 50 µM (inactive),> 50 µM (inactive),> 50 µM (inactive),> 50 µM (inactive),> 50 µM (inactive),> 50 µM (inactive),> 50 µM (inactive),> 50 µM (inactive),> 50 µM (inactive),> 50 µM (inactive),> 50 µM (inactive),> 50 µM (inactive),> 50 µM (inactive),> 50 µM (inactive),> 50 µM (inactive),> 50 µM (inactive),> 50 µM (inactive),> 50 µM (inactive)
Oc1ccc[n+](Cc2ccccc2)c1,> 100 µM (inactive),> 100 µM (inactive),> 100 µM (inactive),> 100 µM (inactive),> 100 µM (inactive),> 100 µM (inactive),> 100 µM (inactive),,> 100 µM (inactive),> 100 µM (inactive),> 100 µM (inactive),> 100 µM (inactive),> 100 µM (inactive),> 100 µM (inactive),> 100 µM (inactive),> 100 µM (inactive),> 100 µM (inactive),> 100 µM (inactive),> 100 µM (inactive),> 100 µM (inactive)
COc1c(C)c(OC)c(C(=O)CC(C)C)c(OC)c1C,52.4 µM (inactive),> 100 µM (inactive),> 100 µM (inactive),> 100 µM (inactive),> 100 µM (inactive),> 100 µM (inactive),> 100 µM (inactive),> 100 µM (inactive),62.7 µM (inactive),> 100 µM (inactive),> 100 µM (inactive),> 100 µM (inactive),65.6 µM (inactive),24.9 µM (inactive),> 100 µM (inactive),> 100 µM (inactive),,> 100 µM (inactive),> 100 µM (inactive),> 100 µM (inactive)
O=c1ccn2n1Cc1ccccc1C2,> 100 µM (inactive),> 100 µM (inactive),> 100 µM (inactive),> 100 µM (inactive),> 100 µM (inactive),> 100 µM (inactive),> 100 µM (inactive),> 100 µM (inactive),> 100 µM (inactive),> 100 µM (inactive),> 100 µM (inactive),> 100 µM (inactive),> 100 µM (inactive),> 100 µM (inactive),> 100 µM (inactive),> 100 µM (inactive),> 100 µM (inactive),> 100 µM (inactive),> 100 µM (inactive),> 100 µM (inactive)
CN(C)CCCn1c(Cn2nc3ccccc3n2)nc2cc(C(F)(F)F)ccc21,31.6 µM (inactive),14.6 µM (inactive),22.1 µM (inactive),36.2 µM (inactive),28.9 µM (inactive),11.6 µM (inactive),41.5 µM (inactive),28.3 µM (inactive),16.9 µM (inactive),41 µM (inactive),64.4 µM (inactive),26.4 µM (inactive),36 µM (inactive),50.7 µM (inactive),16.8 µM (inactive),42 µM (inactive),16.5 µM (inactive),7.6 µM (inactive),17.4 µM (inactive),29.7 µM (inactive)
O=c1n(CC2CO2)c(=O)n(CC2CO2)c(=O)n1CC1CO1 (stereo unspecified) [TEROXIRONE],25 µM (inactive),13.6 µM (inactive),37 µM (inactive),33.8 µM (inactive),26.4 µM (inactive),25.4 µM (inactive),1.36 µM (inactive),96.2 µM (inactive),14.1 µM (inactive),13.7 µM (inactive),20.3 µM (inactive),11 µM (inactive),22.1 µM (inactive),26.2 µM (inactive),32.7 µM (inactive),14.3 µM (inactive),22.8 µM (inactive),43.7 µM (inactive),54.5 µM (inactive),6.97 µM (inactive)
CC[P+](C#Cc1ccccc1)(c1ccccc1)c1ccccc1,2.3 µM (inactive),1.36 µM (inactive),0.966 µM (active),2.86 µM (inactive),3.18 µM (inactive),1.59 µM (inactive),3.94 µM (inactive),2.26 µM (inactive),1.82 µM (inactive),3.08 µM (inactive),2.44 µM (inactive),0.562 µM (active),1.77 µM (inactive),5.92 µM (inactive),1.21 µM (inactive),3.03 µM (inactive),0.224 µM (active),1.97 µM (inactive),1.95 µM (inactive),3.46 µM (inactive)
CC1=Nc2sc3c(c2C2=NCCN12)CCCC3,20 µM (inactive),19.5 µM (inactive),31.3 µM (inactive),27.5 µM (inactive),33.3 µM (inactive),25.7 µM (inactive),25.8 µM (inactive),23.4 µM (inactive),17.6 µM (inactive),,40.6 µM (inactive),29 µM (inactive),20.9 µM (inactive),39.6 µM (inactive),20.2 µM (inactive),52.2 µM (inactive),23.6 µM (inactive),29.9 µM (inactive),28.6 µM (inactive),30.5 µM (inactive)
N#CCN(Cc1ccccc1)[C@@H]1CCC[C@]1(O)C#Cc1ccc2c(c1)OCO2,19.7 µM (inactive),16.1 µM (inactive),15.2 µM (inactive),14.1 µM (inactive),16.9 µM (inactive),18.2 µM (inactive),18 µM (inactive),27 µM (inactive),15.9 µM (inactive),18.5 µM (inactive),16.2 µM (inactive),17.9 µM (inactive),,20.7 µM (inactive),18.8 µM (inactive),19.1 µM (inactive),20.3 µM (inactive),16.3 µM (inactive),17.1 µM (inactive),27.4 µM (inactive)
